Data reported in patent US4109088A, “2-(Indenyloxymethyl) morpholine derivatives” (priority 1975, dated 1978).
Structures can show the parent of a compound that is named as a salt.

Experiments:
[1] = system: methamphetamine-induced stereotyped behavior; assay: Methamphetamine-induced stereotyped behavior in rats (Experiment 6); assay type: in vivo, rats (male Wistar strain, aged 8 weeks)
Experimental: Effects of the compounds on methamphetamine-induced stereotyped behavior in rats (male Wistar strain, aged 8 weeks) were examined according to the method of Ueki et al. (Folia Pharmacologica Japonica, 68, 716, 1972).
The rats were placed in separate plastic cages for 1 hour to be accustomed to the experimental conditions and then the tested compounds were given intraperitoneally followed, after 1 hour, by an intraperitoneal application of methamphetamine (5 mg/kg). The influence of the tested compounds on the agitated behavior of the rats were observed every 30 minutes till 5 hours thereafter.

[2] = system: reserpine-induced hypothermia; assay: Reserpine-induced hypothermia in mice (Experiment 7); details: p.o.
[3] = Pharmacological activity of the isolated isomer salts (general statement); assay type: in vivo; details: statement in words
[4] = system: methamphetamine-induced stereotyped behavior; assay: Potentiation of methamphetamine-induced stereotyped behavior in rats (Experiment 1); assay type: in vivo, rats (male Wistar strain, aged 6 weeks); details: for minimal effective dose: Rattus norvegicus, read-out: minimum effective dose causing statistically significant potentiation of the methamphetamine-induced stereotype; for minimum effective dose causing statistically significant potentiation of the methamphetamine-induced stereotype: i.p., 1 hour before methamphetamine 5 mg/Kg i.p., rats observed every 30 minutes until 5 hours
Experimental: The rats were placed in separate plastic cages for 1 hour to be accustomed to the experimental conditions, then the tested compounds were given intraperitoneally followed after 1 hour by an intraperitoneal application of methamphetamine (5 mg/Kg).

in vivo = details: mouse, po, male, 25-35 g
From the text: Acute toxicity (ICR-JCR strain, male, weighing 25-35 g, p.o.)

[5] = system: reserpine induced ptoses and hypothermia; assay: Competitive effects on reserpine induced ptoses and hypothermia in mice (Experiment 3); assay type: in vivo, mice (male ICR-JCL strain weighing 25-35 g); details: 10 mg/Kg, p.c. (so in the source), simultaneously with reserpine 2 mg/Kg i.p.; scored 0.5-6 hours; 10 mice
Experimental: The tested compound (10 mg/Kg, p.c.) and reserpine (2 mg/Kg, i.p.) were applied simultaneously to the mice and the degree of ptosis was scored according to the method of Ruben et al. (J. Pharmacol. Exptl. Ther., 120, 125, 1957) at 0.5, 1, 2, 3, 4, 5 and 6 hours after dosages, respectively.
Rectal temperature of the mice were also measured together with those of non-reserpinized mice. Inhibitory percent of the degree of ptosis and differences between rectal temperatures of reserpinized and non-reserpinized mice due to the tested compound are shown in the following Table. For each experiment 10 mice were used.

With `C1=Cc2c(cccc2OCC2CNCCO2)C1.Cl` (stereo not shown) [2-(4-indenyloxymethyl)-morpholine hydrochloride] the ED50 ([1]; Rattus norvegicus, ip, 1 hour before methamphetamine 5 mg/kg i.p.) was 5 mg/kg.

In the case of `C1=Cc2cccc(OCC3CNCCO3)c2C1.Cl` (stereo not shown) [2-(7-indenyloxymethyl)morpholine hydrochloride], the “relative potency vs 2-(4-indenyloxymethyl) morpholine hydrochloride” value ([1]; ratio of ED50, i.p.) is reported as 2.5 times and the “potency compared with 2-(4-indenyloxymethyl) morpholine hydrochloride” value [2] is reported as “more potent than the latter”.

For `C1=Cc2cccc(OCC3CNCCO3)c2C1` (stereo not drawn) [7-isomer acid addition salt, acid addition salt of 2-(7-indenyloxymethyl) morpholine], the “pharmacological activity compared with the 4-isomer acid addition salt” value [3] was “more preferable pharmacological activity than the 4-isomer acid addition salt”.

For `CN(C)CCC=C1c2ccccc2CCc2ccccc21` [Amitriptyline, reference compound], the minimal effective dose [4] was 10 mg/kg.

In the case of `CC(C)N1CCOC(COc2cccc3c2CCC3)C1` (stereo not shown) [Compound C, 2-(4-indanyloxymethyl)-4-isopropyl morpholine, reference compound], the “minimum effective dose causing statistically significant potentiation of the methamphetamine-induced stereotype” value [4] is reported as “non effective”.

With `CC(C)N1CCOC(COc2cccc3c2CC=C3)C1` (stereo not shown) [Example 1, 4-isopropyl-2-(7-indenyloxymethyl)morpholine] the LD50 (in vivo) was 650 mg/kg, the minimal effective dose [4] was 0.3 mg/kg and the “Inhibition of ptosis (%)” value [5] was 14.5%.

With `CCCCN1CCOC(COc2cccc3c2CC=C3)C1` (stereo not shown) [Example 2, 4-butyl-2-(7-indenyloxymethyl)-morpholine] the minimal effective dose [4] was 3 mg/kg.

In the case of `CCN1CCOC(COc2cccc3c2CC=C3)C1` (stereo not shown) [Example 5, 4-ethyl-2-(7-indenyloxymethyl)morpholine], the LD50 (in vivo) is reported as 700 mg/kg and the minimal effective dose [4] is reported as 0.3 mg/kg.

Compound `CCCN1CCOC(COc2cccc3c2CC=C3)C1` (stereo not shown) [Example 6, 2-(7-indenyloxymethyl)-4-propylmorpholine] has a minimal effective dose [4] of 1 mg/kg.

`CC1=CCc2c(OCC3CNCCO3)cccc21` (stereo not shown) [Example 11, 2-(3-methyl-7-indenyloxymethyl)morpholine] showed a minimal effective dose [4] of 0.3 mg/kg.

Work on `CC1=CCc2c(OCC3CN(C(C)C)CCO3)cccc21` (stereo not shown) [Example 12A, 4-isopropyl-2-(3-methyl-7-indenyloxymethyl)morpholine] yielded a minimal effective dose [4] of 0.03 mg/kg.

In the case of `CC1=CCc2cccc(OCC3CN(C(C)C)CCO3)c21` (stereo not shown) [Example 12B, 4-isopropyl-2-(3-methyl-4-indenyloxymethyl)morpholine], the minimal effective dose [4] is reported as 0.3 mg/kg.

With `CCOc1ccccc1OCC1CNCCO1` (stereo not shown) [Viloxazine HCl, 2-(2-ethoxyphenoxymethyl) morpholine, reference compound] the “minimum effective dose causing statistically significant potentiation of the methamphetamine-induced stereotype” value [4] was “non effective” and the “Inhibition of ptosis (%)” value [5] was 6.0%.

With “mixture of 2-(4-indenyloxymethyl)morpholine and 2-(7-indenyloxymethyl) morpholine [Example 10]” the “minimum effective dose causing statistically significant potentiation of the methamphetamine-induced stereotype” value [4] was 0.3 mg/kg.
